Data: US20170056380A1, “Systems, Methods, Techniques, and Compounds in Research and Treatment of Portal Hypertension and other Conditions” (priority 2014, published 2017)

Tested on: protein kinase B (Akt)
Assay: Akt phosphorylation (Ser473) and total Akt by immunoblotting in sinusoidal endothelial cells
Assay type: cell-based, rat
Procedure: Cell isolation and culture. Sinusoidal endothelial cells were isolated from male Sprague-Dawley rats (450-500 g) (Harlan, Indianapolis, Ind.). In brief, after in situ perfusion of the liver with 20 mg/100 mg pronase (Roche Molecular Biochemicals, Indianapolis, Ind.), followed by collagenase (Worthington Biochemical, Lakewood, N.J.), dispersed cell suspensions were removed from a layered discontinuous density gradient of 8.2 and 15.6% Accudenz (Accurate Chemical and Scientific, Westbury, N.Y.), further purified by centrifugal elutriation (18 ml/min flow), and were grown in medium containing 20% serum (10% horse/calf). The purity of endothelial cells was documented by their uptake of fluorescently labeled di-l-acetoacetylated low-density lipoprotein as described (21). Only primary sinusoidal endothelial isolates of >95% purity were used for study. Experiments were performed with cells frorrr a minimum three different isolations (for all experiments).
Immunoblotting, Immunoblotting was performed by using specified primary antibodies, including anti-eNOS antibody (1:1,000; BD Transduction Laboratories, San Jose, Calif.), anti-phospho-eNOS-Ser^1177 (1:1,000; BD Transduction Laboratories or Cell Signaling Technology), anti-phospho-Akt, anti-Akt (Cell Signaling Technology, Beverly, Mass.), and horseradish peroxidase-conjugated secondary antibody. Specific signals were visualized using enhanced chemiluminescence as per the manufacturer's instructions and were scanned and quantitated with standard software.
Animal model of liver injury and portal hypedension. Liver injury and portal hypertension were induced by performing bile duct ligation in 450- to 500-gram male retired breeder Sprague-Dawley rats as described in Liu and 20- to 25-gram male BALB/c mice. Briefly, bile duct ligation was performed by surgical isolation and ligation of the common bile duct. […] A calibrated low-pressure transducer (Digi-Med, Louisville, Ky.) was connected to the portal vein catheter, and portal pressure was recorded continuously using the Digi-Med Integrator 200 System (Digi-bled).

`Cc1ncc2c(c1O)COC2c1ccc(Cl)cc1` (stereo not drawn) [cicletanine, 3-(4-chlorophenyl)-1,3-dihydro-7-hydroxy-6-methylfuro-(3,4-c) pyridine] was tested, and the “Akt phosphorylation at Ser473” value (50 or 100 nM, normal sinusoidal endothelial cells) was “increased”, the “total Akt expression” value (normal sinusoidal endothelial cells) was “without a change” and the Akt phosphorylation (sinusoidal endothelial cells injured by bile duct ligation, 2 h) was “restored Akt phosphorylation to above normal levels”.
